Results taken from PubChem BioAssay AID330 (DTP/NCI, 2004).
“And” between values parts separate entries of the source, which are not always exact repeats. Identical values can stand only once. Inconclusive results and toxic doses are left out. Rule for the calls: active = survival T/C of 150% or more; inactive = T/C below 125% in these data. Numbered stars: 1 amine (or outer) side, 2 acyl side, 3 side chain; on linkers, the order of the positions; unused ones are H or OH. Bridge positions count the residues as written; N and C are the ends. Square brackets hold non-standard residues; d marks the D form. Peptide text beside a SMILES is read from it. * marks the point of attachment. X2 = CC(C)C(C)C(C(=O)[*:2])N(C)[*:1]; Picolinoyl(3-OH) = O=C(c1ncccc1O)*; NMePhg = CN[CH](C(=O)O)c1ccccc1; Hyp = O=C(O)[CH]1C[CH](O)CN1; Sar = CNCC(=O)O

Tested on: P388 leukemia ip, CD2F1 mice, survival T/C
Assay: NCI In Vivo Anticancer Drug Screen. Data for tumor model P388 Leukemia (intraperitoneal) in CD2F1 (CDF1) mice
Details: endpoint: median survival time, higher = longer survival
Method in brief: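 Mice carrying the transplanted tumor received test compound or vehicle. Survival was recorded in each group, and the value is the treated-group measurement divided by that of the vehicle-treated control group.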

[1] = dose: 50.0 mg/kg/injection, schedule: Q01DX005 (ip), vehicle: saline with Tween-80
[2] = dose: 100.0 mg/kg/injection, schedule: Q01DX005 (ip), vehicle: saline with Tween-80
[3] = dose: 200.0 mg/kg/injection, schedule: Q01DX005 (ip), vehicle: saline with Tween-80

Measured: T/C

CC(C)CC1NC(=O)C(NC(=O)c2ncccc2O)C(C)OC(=O)C(c2ccccc2)N(C)C(=O)C(C)NC(=O)C(C(C)C(C)C)N(C)C(=O)CN(C)C(=O)C2CC(O)CN2C1=O (stereo not drawn) ({Picolinoyl(3-OH)}-TL[Hyp][Sar][X2]A[NMePhg]; ester 1-C; configuration not given here)
inactive: dose: 12.5 mg/kg/injection, schedule: Q01DX009 (ip), vehicle: Klucel (hydroxypropylcellulose) (HPC) 95 % of control | dose: 25.0 mg/kg/injection, schedule: Q01DX009 (ip), vehicle: Klucel (hydroxypropylcellulose) (HPC) 94 % of control | dose: 50.0 mg/kg/injection, schedule: Q01DX009 (ip), vehicle: Klucel (hydroxypropylcellulose) (HPC) 93 % of control | dose: 100.0 mg/kg/injection, schedule: Q01DX009 (ip), vehicle: Klucel (hydroxypropylcellulose) (HPC) 95 % of control and 97 % of control | dose: 200.0 mg/kg/injection, schedule: Q01DX009 (ip), vehicle: Klucel (hydroxypropylcellulose) (HPC) 98 % of control and 119 % of control

COc1cc(C[C@H]2CC(=O)O[C@@H]2CO)cc(OC)c1OC
inactive: dose: 50.0 mg/kg/injection, schedule: Q04DX002 (ip), vehicle: saline with Tween-80 101 % of control | dose: 100.0 mg/kg/injection, schedule: Q04DX002 (ip), vehicle: saline with Tween-80 99 % of control | dose: 200.0 mg/kg/injection, schedule: Q04DX002 (ip), vehicle: saline with Tween-80 96 % of control

Clc1nc(Cl)c2[nH]c(Cl)nc2n1
inactive: dose: 50.0 mg/kg/injection, schedule: Q01DX005 (ip), vehicle: Klucel (hydroxypropylcellulose) (HPC) 99 % of control | dose: 100.0 mg/kg/injection, schedule: Q01DX005 (ip), vehicle: Klucel (hydroxypropylcellulose) (HPC) 99 % of control | dose: 200.0 mg/kg/injection, schedule: Q01DX005 (ip), vehicle: Klucel (hydroxypropylcellulose) (HPC) 102 % of control

NC(=S)n1nc(-c2cccs2)c(N=Nc2ccc(Cl)cc2)c1C(F)(F)F
inactive: dose: 60.0 mg/kg/injection, schedule: Q01DX005 (ip), vehicle: Klucel (hydroxypropylcellulose) (HPC) 87 % of control | dose: 120.0 mg/kg/injection, schedule: Q01DX005 (ip), vehicle: Klucel (hydroxypropylcellulose) (HPC) 93 % of control

C=Cc1ccc(NC(=O)CC2SC(=O)NC2=O)cc1 (stereo not drawn)
inactive: [1] 103 % of control | [2] 97 % of control | [3] 103 % of control

CCOCC(=O)c1ccc2c(O)c3c(c(O)c2c1)C(=O)c1cccc(OC)c1C3=O
inactive: dose: 1.56 mg/kg/injection, schedule: Q01DX009 (ip), vehicle: other 105 % of control | dose: 3.13 mg/kg/injection, schedule: Q01DX009 (ip), vehicle: other 104 % of control | dose: 6.25 mg/kg/injection, schedule: Q01DX009 (ip), vehicle: other 103 % of control | dose: 12.5 mg/kg/injection, schedule: Q01DX009 (ip), vehicle: other 106 % of control | dose: 25.0 mg/kg/injection, schedule: Q01DX009 (ip), vehicle: other 108 % of control

C=C1C(=O)OC2C(OC(C)=O)C1C(OC(=O)C(C)CC)[C@]1(C)C(=O)C=C[C@H]1[C@@H]2C (stereo partly drawn)
inactive: dose: 0.78 mg/kg/injection, schedule: Q01DX005 (ip), vehicle: Klucel (hydroxypropylcellulose) (HPC) 97 % of control | dose: 1.56 mg/kg/injection, schedule: Q01DX005 (ip), vehicle: Klucel (hydroxypropylcellulose) (HPC) 101 % of control and 113 % of control | dose: 3.12 mg/kg/injection, schedule: Q01DX005 (ip), vehicle: Klucel (hydroxypropylcellulose) (HPC) 111 % of control | dose: 6.25 mg/kg/injection, schedule: Q01DX005 (ip), vehicle: Klucel (hydroxypropylcellulose) (HPC) 116 % of control and 122 % of control | dose: 12.5 mg/kg/injection, schedule: Q01DX005 (ip), vehicle: Klucel (hydroxypropylcellulose) (HPC) 99 % of control and 102 % of control

Cc1ncc([N+](=O)[O-])n1CCN=[N+]=[N-]
inactive: dose: 50.0 mg/kg/injection, schedule: Q04DX003 (ip), vehicle: saline 99 % of control and 100 % of control | dose: 100.0 mg/kg/injection, schedule: Q04DX003 (ip), vehicle: saline 101 % of control and 107 % of control | dose: 200.0 mg/kg/injection, schedule: Q04DX003 (ip), vehicle: saline 100 % of control and 112 % of control | dose: 400.0 mg/kg/injection, schedule: Q04DX003 (ip), vehicle: saline 100 % of control and 107 % of control

COC1=CC(C)C2CC3OC(=O)CC4C(C)C(=O)C(O)C(C2(C)C1=O)C34C (stereo not drawn)
inactive: dose: 2.5 mg/kg/injection, schedule: Q01DX009 (ip), vehicle: Klucel (hydroxypropylcellulose) (HPC) 90 % of control | dose: 5.0 mg/kg/injection, schedule: Q01DX009 (ip), vehicle: Klucel (hydroxypropylcellulose) (HPC) 100 % of control | dose: 10.0 mg/kg/injection, schedule: Q01DX009 (ip), vehicle: Klucel (hydroxypropylcellulose) (HPC) 106 % of control | dose: 20.0 mg/kg/injection, schedule: Q01DX009 (ip), vehicle: Klucel (hydroxypropylcellulose) (HPC) 98 % of control

C1CCN2CC3CC(CN4CCCCC34)C2C1 (stereo not drawn)
inactive: dose: 1.87 mg/kg/injection, schedule: Q01DX005 (ip), vehicle: saline 100 % of control | dose: 3.75 mg/kg/injection, schedule: Q01DX005 (ip), vehicle: saline 101 % of control | dose: 6.2 mg/kg/injection, schedule: Q01DX007 (ip), vehicle: carboxymethylcellulose (CMC) 91 % of control | dose: 7.5 mg/kg/injection, schedule: Q01DX005 (ip), vehicle: saline 102 % of control | dose: 12.5 mg/kg/injection, schedule: Q01DX007 (ip), vehicle: carboxymethylcellulose (CMC) 100 % of control | dose: 15.0 mg/kg/injection, schedule: Q01DX005 (ip), vehicle: saline 100 % of control | dose: 25.0 mg/kg/injection, schedule: Q01DX005 (ip), vehicle: saline 92 % of control | dose: 25.0 mg/kg/injection, schedule: Q01DX007 (ip), vehicle: carboxymethylcellulose (CMC) 91 % of control | dose: 50.0 mg/kg/injection, schedule: Q01DX005 (ip), vehicle: saline 99 % of control

CCOC(=O)c1ccc(NC(CCC(C#N)(C#N)CCC(=NC(C)(C)C)Nc2ccc(C(=O)OCC)cc2)=NC(C)(C)C)cc1
inactive: dose: 50.0 mg/kg/injection, schedule: Q01DX009 (ip), vehicle: saline with Tween-80 95 % of control | dose: 100.0 mg/kg/injection, schedule: Q01DX009 (ip), vehicle: saline with Tween-80 95 % of control | dose: 200.0 mg/kg/injection, schedule: Q01DX009 (ip), vehicle: saline with Tween-80 96 % of control

O=C(CCCC(=O)Nc1cccc2[nH]c3ccccc3c(=O)c12)Nc1cccc2[nH]c3ccccc3c(=O)c12
inactive: dose: 60.0 mg/kg/injection, schedule: Q01DX005 (ip), vehicle: saline with Tween-80 100 % of control | dose: 120.0 mg/kg/injection, schedule: Q01DX005 (ip), vehicle: saline with Tween-80 88 % of control | dose: 240.0 mg/kg/injection, schedule: Q01DX005 (ip), vehicle: saline with Tween-80 100 % of control

CN1C(c2ccccc2)CC(=NOCc2ccccc2)CC1c1ccccc1 (stereo not drawn)
inactive: [1] 98 % of control | [2] 96 % of control | [3] 89 % of control

COc1ccc2c3c1OC1C(OC)(OC)C=CC4(F)[C@@H](C2)N(C)CC[C@]314 (stereo partly drawn)
inactive: dose: 100.0 mg/kg/injection, schedule: Q01DX001 (ip), vehicle: Klucel (hydroxypropylcellulose) (HPC) 105 % of control | dose: 200.0 mg/kg/injection, schedule: Q01DX001 (ip), vehicle: Klucel (hydroxypropylcellulose) (HPC) 100 % of control | dose: 400.0 mg/kg/injection, schedule: Q01DX001 (ip), vehicle: Klucel (hydroxypropylcellulose) (HPC) 96 % of control

CCN(CC)CC.[CH-]1CCCCC1.[CH-]1CCCCC1.[CH3-].[Cl-].[Cl-].[Sn+4]
inactive: dose: 6.0 mg/kg/injection, schedule: Q01DX005 (ip), vehicle: saline 107 % of control | dose: 12.0 mg/kg/injection, schedule: Q01DX005 (ip), vehicle: saline 96 % of control

O=C(Nc1ncn[nH]1)C(=O)Nc1ncn[nH]1
inactive: dose: 6.25 mg/kg/injection, schedule: Q01DX009 (ip), vehicle: saline with Tween-80 92 % of control | dose: 12.5 mg/kg/injection, schedule: Q01DX009 (ip), vehicle: saline with Tween-80 94 % of control | dose: 25.0 mg/kg/injection, schedule: Q01DX009 (ip), vehicle: saline with Tween-80 95 % of control

CCC/C(=N\NC(=S)N1CC2CCC(CC2)C1)c1ccccn1
inactive: dose: 6.25 mg/kg/injection, schedule: Q01DX005 (ip), vehicle: saline with Tween-80 104 % of control and 110 % of control | dose: 12.5 mg/kg/injection, schedule: Q01DX005 (ip), vehicle: saline with Tween-80 113 % of control and 116 % of control | dose: 25.0 mg/kg/injection, schedule: Q01DX005 (ip), vehicle: saline with Tween-80 120 % of control
